The values below come from US6399607B1, “Aminomethylene amide analogs of pyrazinamide with intracellular antimycobacterial activity against pyrazinamide-resistant mycobacteria combined with a rifamycin” (priority 1999, dated 2002).

Molecules are shown by their SMILES. Where two headings read alike, the source gives them in different places. Bounds are passed on as bounds.

What all share (type): cell-based, Mycobacterium tuberculosis
For assay [1], the system named is M. tuberculosis. Also noted: unit not given beside the values. Particulars: for MIC, M. tuberculosis ATCC 27294: ATCC 27294 = H37RV, strain susceptible to pyrazinamide; for MIC, M. tuberculosis ATCC 35822: ATCC 35822, isoniazid (INH)-resistant strain; for MIC, M. tuberculosis ATCC 35828: ATCC35828, PZA resistant strain; for MIC, M. tuberculosis MS 6210: MS6210, resistant clinical isolate.

Assay [2] relates to M. tuberculosis. Description: MIC in modified 7H10 broth against M. tuberculosis (Table 3). The conditions noted are these: ATCC 35828 (PZA resistant), pH 5.8. The arrangement: MIC, M. tuberculosis ATCC 35828: unit not given beside the values.
For assay [3], the system named is M. tuberculosis. Put plainly: Influence of pH on MICs (Table 5). The arrangement: unit not given beside the values. The conditions noted are these: ATCC 35828 (PZA resistant).
Assay [4] concerns M. tuberculosis. Description: microbe, parasite or virus in culture. The arrangement: MIC, PZA-resistant strain at pH 6.0: unit not given beside the values. Particulars: for MIC, INH-resistant strain, pH 6.0 / MIC, PZA-resistant strain, pH 6.0 / MIC, INH-resistant strain, pH 6.8 / MIC, PZA-resistant strain, pH 6.8: 7H12 BACTEC broth.
Assay [5] has as its system M. tuberculosis.
Assay [6] relates to PZA-resistant Mtb in macrophages. The conditions noted are these: FIG. 1; in comparison with PZA or the control.

`O=C(NCN1CCOCC1)c1cnccn1` [Compound 4, (morpholin-4-ylmethyl)-amide]: in the assay with M. tuberculosis [1], the “MIC, M. tuberculosis ATCC 27294” value amounted to 100; the “MIC, M. tuberculosis ATCC 35822” value came to 33; the “MIC, M. tuberculosis ATCC 35828” value is given as 100; the “MIC, M. tuberculosis MS 6210” value was found to be 100. The “MIC, M. tuberculosis ATCC 35828” value against M. tuberculosis [2] amounted to 16.

For `O=C(NCN1CCCC1)c1cnccn1` [Compound 1, pyrazine-2-carboxylic acid (pyrrolidin-1-ylmethyl)-amide], in the assay on M. tuberculosis [3], the “MIC, ATCC 35828 pH 6.0” value was found to be 100 and the “MIC, ATCC 35828 pH 6.8” value was 100. For the same molecule, the “MIC, M. tuberculosis ATCC 35828” value with M. tuberculosis [2] was determined as 2. Also, in the assay with M. tuberculosis [4] (pH 6.0), the “MIC, INH-resistant strain, pH 6.0” value was 100 g./ml and the “MIC, PZA-resistant strain, pH 6.0” value stood at 100 g./ml. Also, in the assay with M. tuberculosis [4], the “MIC, INH-resistant strain, pH 6.8” value is 100 g./ml and the “MIC, PZA-resistant strain, pH 6.8” value is given as 100 g./ml. For the same molecule, the “MIC, PZA-resistant strain, pH 5.5” value against M. tuberculosis [4] (PZA-resistant strain) was determined as 100 g./ml.

`CN(CNC(=O)c1cnccn1)Cc1ccccc1` [Compound 8, [(benzyl-methyl-amino)-methyl]-amide]: in the assay with M. tuberculosis [1], the “MIC, M. tuberculosis ATCC 27294” value came to 100; the “MIC, M. tuberculosis ATCC 35822” value was 100; the “MIC, M. tuberculosis ATCC 35828” value is reported as 100; the “MIC, M. tuberculosis MS 6210” value is 33.

With `NC(=O)c1cnc(Cl)cn1` [Compound 5-Chloro-PZA, 5-chloro-pyrazinamide, reference compound], in the assay on M. tuberculosis [2], the “MIC, M. tuberculosis ATCC 35828” value worked out at 8.

Take `O=C(NCN1CCOCC1)c1cnccn1` [MZA, morphazinamide]: the “activity at pH 6.8 compared with pH levels 5.5 and 6.0” value with M. tuberculosis [5] (pH 6.8 v. 5.5 and 6.0) is “no different from or only slightly higher than at pH levels 5.5 and 6.0”. Moreover, the “MICs against susceptible strains at pH 5.5 and 6.0 compared with PZA” value with M. tuberculosis [5] (susceptible strains, pH 5.5 and 6.0) is “in the same range as those of PZA”. In the assay with M. tuberculosis [3], the “MIC, ATCC 35828 pH 6.0” value stood at 100 and the “MIC, ATCC 35828 pH 6.8” value turned out to be 100. Further, in the assay on M. tuberculosis [4] (pH 6.0), the “MIC, INH-resistant strain, pH 6.0” value is on record as 100 g./ml and the “MIC, PZA-resistant strain, pH 6.0” value is on record as 100 g./ml. In the assay with M. tuberculosis [4], the “MIC, INH-resistant strain, pH 6.8” value was 100 g./ml and the “MIC, PZA-resistant strain, pH 6.8” value came to 100 g./ml. In the assay with M. tuberculosis [4] (PZA-resistant strain), the “MIC, PZA-resistant strain, pH 5.5” value is reported as 100 g./ml.

Consider `CCCN(CCC)CNC(=O)c1cnccn1` [Compound 9, dipropylaminomethyl-amide], for which, in the assay with M. tuberculosis [1], the “MIC, M. tuberculosis ATCC 27294” value is given as 100; the “MIC, M. tuberculosis ATCC 35822” value is on record as 100; the “MIC, M. tuberculosis ATCC 35828” value is listed as 100; the “MIC, M. tuberculosis MS 6210” value was 100.

For the molecule `NC(=O)c1cnccn1` [PZA, Pyrazinamide], the “activity against susceptible strains by pH” value in the assay with M. tuberculosis [5] (pH 5.5, 6.0, 6.8) was “active against susceptible strains at pH 5.5 and 6.0 only, and not at pH 6.8”. Besides, in the assay on M. tuberculosis [1], the “MIC, M. tuberculosis ATCC 27294” value was 33; the “MIC, M. tuberculosis ATCC 35822” value is listed as 33; the “MIC, M. tuberculosis ATCC 35828” value is greater than 300; the “MIC, M. tuberculosis MS 6210” value was found to be 100. In the assay with M. tuberculosis [3], the “MIC, ATCC 35828 pH 6.0” value was greater than 300 and the “MIC, ATCC 35828 pH 6.8” value is greater than 300. For the same molecule, the “MIC, M. tuberculosis ATCC 35828” value in the assay with M. tuberculosis [2] worked out at 2048. Moreover, in the assay with M. tuberculosis [4] (pH 6.0), the “MIC, INH-resistant strain, pH 6.0” value is reported as 33 g./ml and the “MIC, PZA-resistant strain, pH 6.0” value is listed as greater than 300 g./ml. In addition, in the assay on M. tuberculosis [4], the “MIC, INH-resistant strain, pH 6.8” value is on record as greater than 300 g./ml and the “MIC, PZA-resistant strain, pH 6.8” value was greater than 300 g./ml. For the same molecule, in the assay on M. tuberculosis [4] (PZA-resistant strain), the “MIC, PZA-resistant strain, pH 5.5” value is on record as greater than 300 g./ml. In addition, in the assay on M. tuberculosis [4] (PZA-resistant strain, pH 6.0), the “MIC, PZA-resistant strain at pH 6.0” value is reported as greater than 300.

`CCN(CC)CNC(=O)c1cnccn1` [Compound 2, pyrazine-2-carboxylic acid diethylaminomethyl-amide]: in the assay on M. tuberculosis [3], the “MIC, ATCC 35828 pH 6.0” value worked out at 100 and the “MIC, ATCC 35828 pH 6.8” value came to 100. Further, the “MIC, M. tuberculosis ATCC 35828” value against M. tuberculosis [2] amounted to 1. Also, the “number of colony forming units (CFU) of M. tuberculosis from macrophages” value in assay [6] is on record as “reduced the number of CFU”. Also, in the assay on M. tuberculosis [4] (pH 6.0), the “MIC, INH-resistant strain, pH 6.0” value is 100 g./ml and the “MIC, PZA-resistant strain, pH 6.0” value is on record as 100 g./ml. In addition, in the assay with M. tuberculosis [4], the “MIC, INH-resistant strain, pH 6.8” value came out at 100 g./ml and the “MIC, PZA-resistant strain, pH 6.8” value was 100 g./ml.

For the molecule `CCN(CC)CNC(=O)c1cnc(N(CC)CC)cn1` [Compound 17, 5-diethylamino-pyrazinoic acid diethylaminomethyl-amide], the “MIC, M. tuberculosis ATCC 35828” value against M. tuberculosis [2] is 16.

In the case of `CN1CCN(CNC(=O)c2cnccn2)CC1` [Compound 7, (piperazin-1-ylmethyl)-amide], in the assay with M. tuberculosis [1], the “MIC, M. tuberculosis ATCC 27294” value is listed as 300; the “MIC, M. tuberculosis ATCC 35822” value is given as 100; the “MIC, M. tuberculosis ATCC 35828” value is on record as 300; the “MIC, M. tuberculosis MS 6210” value was 100.
